Here are results for four molecules from article PMC6206036, “Locking loop movement in the ubiquinone pocket of complex I disengages the proton pumps” (Nature Communications, 2018).

Where two headings read alike, the source gives them in different places.

For series [1], the target named is T1, Complex I (proton-pumping NADH:ubiquinone oxidoreductase) (Yarrowia lipolytica, UniProt Q9B6C7+Q9B6E8+Q9UUT7+Q9UUU1).
T1 construct: gene nucm; native complete respiratory complex I in unsealed mitochondrial membranes; nugm-Htg2 (tagged NUGM) strain background; NUKM expressed from replicative plasmid pUB4 under endogenous promoter; 14 central plus accessory subunits; with NADH-ubiquinone oxidoreductase 51 kDa subunit, mitochondrial
The series can be described thus: inhibition of dNADH:DBQ oxidoreductase activity, mitochondrial membranes. The series is classed as biochemical. The source says: inhibition of dNADH:DBQ oxidoreductase activity, mitochondrial membranes on Complex I (proton-pumping NADH:ubiquinone oxidoreductase)

For series [2], the target named is T1, Complex I (proton-pumping NADH:ubiquinone oxidoreductase). Put plainly: dNADH:DBQ oxidoreductase activity at […] nm, mitochondrial membranes. The series is classed as biochemical. The conditions noted are these: 100 µM dNADH, DBQ 0-100 µM, pH 8.5, 25 °C; membranes preincubated with 5 mM DTT for 5 min (ND3-PSST disulfide reduced); read-out: K M ^d /.
Substrate in series [3]: CCCCCCCCCCC1=C(C)C(=O)C(OC)=C(OC)C1=O
Put plainly: cells, lysate or membranes. The series is classed as biochemical, Yarrowia lipolytica. To be noted: 100 µM dNADH, DBQ 0-100 µM, pH 8.5, 25 °C, membranes preincubated with 5 mM DTT for 5 min.

Turning to `C=C(C)[C@H]1Cc2c(ccc3c2O[C@@H]2COc4cc(OC)c(OC)cc4[C@@H]2C3=O)O1` [rotenone], the IC50 in series [1] (read-out: IC50^e / Rotenone /) was 560 ± 55 nM.
With `CCCCCCCCCCc1nc(N)c2ccccc2n1` [DQA, 2-n-decyl-quinazolin-4-yl-amine], the IC50 in series [1] (100 µM dNADH, 100 µM DBQ, pH 8.5, 25 °C, membranes preincubated with 5 mM DTT for 5 min (ND3-PSST disulfide reduced)) was determined as 13 ± 3 nM; in series [1] (100 µM dNADH, 100 µM DBQ, pH 8.5, 25 °C, membranes preincubated with 5 mM DTT for 5 min, read-out: IC50^e / DQA /), 16 ± 3 nM.
Turning to `CCCCCCCCCCC1=C(C)C(=O)C(OC)=C(OC)C1=O` [DBQ, decylubiquinone], in series [2], the Km worked out at 19 ± 3 µM.

B1: Complex I (proton-pumping NADH:ubiquinone oxidoreductase) (Yarrowia lipolytica CLIB122) (protein)
chain 1: MATTALPQDPIPSGALGQKVPHVDESHQDLLFRTSHMVEDLETYDEDSPINTSDANTRIRAFTINFGPQHPAAHGVLRLILELSGEEIIRSDPHVGLLHRGTEKLIEYKTYMQALPYFDRLDYVSMMTNEQVFSLAVEKLLNVEVPLRGKYIRTMFGEITRVLNHLMSVCSHAMDVGALTPFLWGFEEREKLMEFYERVSGARLHAAYVRPGGVSQDLPAGLLDDIYMWATQFGDRLDEIEELLTDNRIWKLRTVNIGTVTAQDALNLGLSGPMLRGSGIPFDIRKNAPYDAYDKVDFDVPVGMNGDCYDRYLIRMAEFRQSLRIIEQCCNDMPAGAVKVEDFKINSPPRNLMKEDMEALIHHFLLYTKGYSVPPGETYTAIEAPKGEMGVYVVSDGSERPYKCKIRAPGFAHLGAFDHIARGHFLPDAVAIIGTMDLVFGEVDR
chain 2: SAPAGTPRVSSSSMPTDFPLPSQQKPNSAVDYTLTTLDAVANWARQGSFWPVTFGLACCAVEMMHVSAPRYDQDRLGIIFRASPRQSDIMIVAGTLTNKMAPVLRQVYDQMPEPRWVISMGSCANGGGYYHFSYSVVRGCDRIVPVDVYVPGCPPTSEALMYGVFQLQRKMRNTKITRMWYRK
chain 3: MIINIVEILIFLVCVLFSVAYLTVAERKTLAYMQRRLGPNFVGYYGLLQAFADAVKLLLKEIVLPKESNYIILVISPLITLITALIGWVVIPLGPGITLGELNLGILFSLAIGSLGVFGSLLSGWSSNSKYSLLGSIRSTAQLISYELILTSIFIIIIMFVSSLNITTIIETQRVVWYCIPLLPLLLIFFIASVAETARPPFDLTESESELVAGYFTEYSGSPFVFFFLAEYSNIILISAFNGYLLLGGYLSFNYSYLFNILFNDYSYVSFLFEGLINSSAYAIKLVFLMFSFIWVRAAFPRFTYDNLINFCWIILLPLLFGIFLIIPSTLYIFDSFPTLI
chain 4: MNTFIIFIILIPIVGFALLAVNILLAVYKPYNEKLGAFECGLTSFNQTRLAFNAAFILVAILFLPFDLEISTLLPYVMSIYLVSNYGFTIVLLFLLILIIGFVYEINTNALKINKHNKPNTDSLIYKL
notes: native complete respiratory complex I in unsealed mitochondrial membranes; nugm-Htg2 (tagged NUGM) strain background; NUKM expressed from replicative plasmid pUB4 under endogenous promoter; 14 central plus accessory subunits; with NADH-ubiquinone oxidoreductase 51 kDa subunit, mitochondrial
The term Vmax denotes the top rate of the reaction or transport when substrate is in excess. Consider B1, for which, in series [3], the Km came to 17 ± 3 µM and the Vmax stood at 0.16 µmol/min/mg.
